Here are results for five molecules from publication PMC5458052 (Nature Communications, 2017).

Read-outs that look alike come from different tables or passages of the source.

Data set [1] deals with P. falciparum lab lines FC27 and K1. The data set can be described thus: microbe, parasite or virus in culture. It counts as cell-based. The settings on record: Plasmodium falciparum, median of 3 independent experiments.
Data set [2] concerns P. falciparum strains (sensitive and resistant). Nature of the data set: microbe, parasite or virus in culture. Conditions: Plasmodium falciparum, mean ± SD n=3. It counts as cell-based.
For data set [3], the system named is P. vivax clinical field isolates. The data set can be described thus: microbe, parasite or virus in culture. In kind it is cell-based. Conditions: Plasmodium vivax, read-out: Median IC50.
Data set [4] relates to P. falciparum strain 3D7^0087/N9. More on the design: method as in PMID 19596869. The settings on record: four consecutive daily doses; cited from earlier work.
For data set [5], the system named is P. berghei. Further details: species or system Plasmodium berghei.
The test system of data set [6] is P. falciparum 3D7. The data set can be described thus: In vitro antimalarial activity, drug sensitivity testing (3D7). It counts as cell-based. Conditions: Plasmodium falciparum.
A short description of data set [7]: Rat PK iv 1 mg/kg (Chem Partners). Conditions: in vivo.
Data set [8] is described as follows: In vitro intrinsic clearance, rat liver microsomes (Chem Partners). In kind it is in vitro ADME. The settings on record: rat (R) liver microsomes. In general terms: Liver microsomes are a subcellular fraction often used to study metabolism.
Data set [9] in a line: Rat blood stability in vitro. Conditions: male, Sprague Dawley, freshly collected whole blood.
A short description of data set [10]: In vitro intrinsic clearance, human liver microsomes (Chem Partners). In kind it is in vitro ADME. The settings on record: human (H) liver microsomes.
The nature of data set [11]: Mammalian cell cytotoxicity. It counts as cell-based. Conditions: human; HeLa cells, n=3; read-out: cytotoxicity median IC50.
For data set [12], the system named is P. berghei. Further details: method as in Charman et al. 12. The settings on record: ref Charman et al. 12, cited from earlier work.
Data set [13] has as its system African variant G6PD deficient human red blood cells (huRBC). The settings on record: 7 days post-treatment; E209 up to 50 mg kg^−1 day^−1 for 3 days; PQ 25 mg/kg/day for 3 days.

As usually defined, the IC50 is the concentration needed to halve the response being measured. In general, clearance refers to the volume of plasma or blood freed of the substance per unit of time. Low values mean a low capacity for elimination, high ones a high capacity for elimination. In general, half-life refers to the time in which the quantity being followed falls by half. Higher therefore signals slow decline. Usually CLint scaled stands for the capacity of the preparation to metabolise the compound, expressed as a volume cleared per time. High values mean faster metabolism, low ones greater metabolic stability.

In the case of `C[C@H]1[C@H](OC(=O)CCC(=O)O)O[C@@H]2O[C@@]3(C)CC[C@H]4[C@H](C)CC[C@@H]1[C@@]24OO3` [Artesunate, artesunate], the IC50 in data set [1] (K1, FC27 (CQ S) lab line) was 3.6 nM; in [1] (K1, K1 (CQ R) lab line), 5.1 nM; in [2] (DD2, strain Dd2 (chloroquine resistant)), 5.4 ± 1.1 nM; in data set [2] (HB3, strain HB3 (chloroquine sensitive)) it was 2.8 ± 0.6 nM; in data set [2] (NF54, strain NF54 (chloroquine sensitive)) it was 4.7 ± 1 nM; in data set [2] (strain 7G8 (chloroquine resistant)) it was 1.8 ± 0.4 nM. The IC50 in data set [2] (strain D6 (chloroquine sensitive)) turned out to be 5.8 ± 1.2 nM; in [2] (strain FCB (chloroquine resistant)) it was 5.8 ± 1.2 nM; in data set [2] (strain K1 (chloroquine resistant)), 2.8 ± 0.6 nM; in [2] (strain V1/S (chloroquine resistant)), 2.7 ± 0.6 nM; in [3], 0.8 nM. In addition, the ED90 in [4] was 10 mg/kg.

As to `CS(=O)(=O)N1CCN(CCCOc2ccc(C3CCC4(CC3)OOC3(OO4)C4CC5CC(C4)CC3C5)cc2)CC1` (stereo not drawn) [Compound 7], in [5], the “In vivo (Pb) MSD (days) at 1 x 30 mg/kg” value was 14 (14, 14, 14) days. In data set [6], this molecule returned an IC50 of 3.7 ± 0.1 nM. In [7], the clearance turned out to be 3.5 mL/min/kg and the half-life was 3.2 h. In data set [8], this molecule showed a CLint scaled of 29 mL/min/kg. Further, the half-life at 1 µM in data set [9] is 15 h. This molecule registered a CLint scaled in [10] of 238 mL/min/kg.

For `C[C@H]1[C@@H](O)O[C@@H]2O[C@@]3(C)CC[C@H]4[C@H](C)CC[C@@H]1[C@@]24OO3` [DHA, dihydroartemisinin, reference compound], the IC50 in data set [11] was determined as 400 nM.

In turn, `c1cc([C@H]2CC[C@]3(CC2)OO[C@]2(O3)C3CC4CC(C3)CC2C4)ccc1OCCN1CCOCC1` [OZ439] had an IC50 in data set [6] of 5.1 ± 0.81 nM. In addition, the cures in data set [12] (animals cured of n=3, single oral dose 30 mg/kg) was 3. The “In vivo (Pb) MSD (days) at 1 x 30 mg/kg” value in data set [12] (single oral dose 30 mg kg^-1, P. berghei infected mice) is 30 days.

Take `COc1cc(NC(C)CCCN)c2ncccc2c1` (stereo not drawn) [primaquine, reference compound]: the “loss of huRBC” value in data set [13] is “induced significant loss of huRBC”.
